Test results from patent publication US20250346582A1, “SPLEEN TYROSINE KINASE INHIBITORS AND METHODS OF USE THEREOF” (THE BOARD OF TRUSTEES OF THE UNIVERSITY OF ILLINOIS, priority 2022, published 2025).

What was measured:
[1] = biological target: T1, ZAP70-cSH2 (Homo sapiens, UniProt P43403); test: Fluorescence quenching vesicle binding assay, ZAP70-cSH2; conditions: for Emax: read-out: Imax (%); for inhibition of ZAP-70-cSH2 binding to POPC/POPS/PIP3/dabsyl-PE vesicles: in words
T1 construct: polyhistidine (N); made in house; host or cells: Escherichia coli BL21 (DE3) pLysS
T1 sequence (P43403 163-254 limits assumed): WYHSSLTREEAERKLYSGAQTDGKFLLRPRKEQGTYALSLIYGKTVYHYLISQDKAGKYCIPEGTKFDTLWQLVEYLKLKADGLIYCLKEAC
Experimental: (§1) The membrane-binding assay is based on fluorescence quenching of EGFP fused to a SH2 domain by a dark quencher containing lipid, dabsyl-PE, incorporated in lipid vesicles. The plate reader assay was performed using the Synergy™ Neo spectrofluorometer at 25° C. Nontreated black polystyrene 96-well plates (Corning) were used. Protein (10-50 nM) with the increasing concentration of vesicles with a given lipid composition in 20 mM Tris buffer, pH 7.4, containing 0.16 M NaCl was added to each row of wells and the EGFP fluorescence emission at 516 nm was measured with excitation set at 485 nm. Z′ factor for the assay system was determined as described^74. Imax and IC50 values of inhibitors were determined using the equation, I=Imax/(1+IC50/[I]) where I and [I] indicate % inhibition and inhibitor concentration, respectively. The average and standard deviation values were obtained from triplicate determinations.
(§2) We also optimized a recently developed fluorescence quenching-based lipid-binding assay^47 for high-throughput screening of these molecules for their inhibitory activity against the PIP3-SH2 interaction. Specifically, we expressed SH2 domains as EGFP-tagged proteins and directly quantified their membrane binding by monitoring the quenching of EGFP fluorescence emission intensity by a dark quencher-containing lipid, N-dimethylaminoazo-benzenesulfonyl-phosphatidylethanolamine (dabsyl-PE), incorporated in the vesicles. We then screened for compounds that inhibited binding of Syk-cSH2, BLNK-SH2, and PLCγ2-cSH2, respectively, to 1-palmitoyl-2-oleoyl-PC (POPC)/1-palmitoyl-2-oleoyl-PS (POPS)/PIP3/dabsyl-PE (67:20:3:10) vesicles while eliminating those that inhibit their non-specific binding to anionic POPC/POPS/dabsyl-PE (70:20:10) vesicles. The quality of the screening system was evaluated using 1% dimethylsulfoxide (DMSO) and 20 μM D-myo-inositol-1,3,4,5-tetraphosphate (IP4) as negative and positive controls, respectively. The clear separation of positive and negative control data and the average Z′-factor of 0.7 supported the robustness of our system for high-throughput screen of PIP3-SH2 interaction inhibitors.

[2] = system: MV4-11 cells; test: XTT cell proliferation assay, MV4-11 cells; assay type: cell-based
Experimental: MV4-11 or HL-60 cells were seeded into a clear-bottom 96-well plate containing varying concentrations of inhibitors in the optimal growth media described above and the mixtures were incubated for 16 h. Cells were then treated with a mixture of XTT-labeling reagents and the electron coupling reagents according to the manufacturer's protocol (Roche). After 4 h, the absorbance values at 475 nm and at 660 nm were simultaneously measured by Synergy™ Neo spectrofluorometer at 25° C. Cells with the growth media was used for background correction.

[3] = biological target: T2, Syk-cSH2 (Homo sapiens, UniProt P43405); test: Fluorescence quenching vesicle binding assay, Syk-cSH2; conditions: for IC50: read-out: IC50
T2 construct: polyhistidine (N); made in house; host or cells: Escherichia coli BL21 (DE3) pLysS
Experimental: as §1, §2

[4] = system: BCR signaling axis (Syk-BLNK-PLCγ2); test: Western blot of BCR signaling axis in Raji B lymphocytes; assay type: cell-based; conditions: Raji B cells
Experimental: (§3) Cells were seeded at a density of 3.0×10^5 cells/well prior to incubation with inhibitors. Cells were incubated with 1-5 μM of Syk inhibitors overnight and stimulated with different antibodies: IgG2 for AML cells, IgM for Raji B cells, and OKT3 (Biolegend) for Jurkat cells. The cells were lysed in NP40 lysis buffer (50 mM Tris, pH 7.5, 150 mM NaCl, 1 mM EDTA, 1% NP40, 10% glycerol, 10 mM NaF, 10 mM Na3VO4, and the protease inhibitor cocktail) at 4° C. and the cell debris was removed by centrifugation. Samples were analyzed by SDS-PAGE. Proteins were separated and transferred to Immobilon-P polyvinylidene difluoride membrane (Millipore Sigma). The membrane was blocked with 5% bovine serum albumin for 1 h and incubated overnight at 4° C. with various antibodies (1:1000 dilution for all antibodies). After the unbound antibodies were removed by washing with 0.1% Tris buffer saline with 0.1% Tween20, the membranes were incubated with the horseradish peroxidase secondary antibody (1:5000 dilution) for 1 h at room temperature. The membranes were washed three more times with 0.1% Tris buffer saline with 0.1% Tween20 to remove the unbound horseradish peroxidase secondary antibody before imaging. The chemiluminescence intensity of protein bands in the gel was analyzed and documented by the Azure 500Q Imaging System.

[5] = system: phosphorylation of ERK1/2 and STAT3/5; test: Western blot of phosphorylation in HL60 cells; assay type: cell-based; conditions: RAS-mutated HL60 cells; 5 μM
Experimental: FIGS. 3A-3D show the inhibition of the signaling activity and proliferation of HL-60 AML cells by Syk-cSH2 inhibitors. […] DMSO was used as a negative control and GAPDH as a gel loading control. […] (c) Inhibition of phosphorylation of Syk, STAT3/5 and ERK1/2 in patient-derived primary AML cells by WC36. Cells were cultured overnight in the presence of CD34+ cytokine supplement. DMSO was used as a negative control. Representative data from one (Patient 1) of four patient samples are shown here. (d) Inhibition of the proliferation of four patient AML cells by WC36 measured by the colony growth assay. The number of colonies after WC36 treatment was normalized to the enumerated colonies after DMSO treatment.
as §3

[6] = biological target: T3, PLCγ2-cSH2 (Homo sapiens, UniProt P16885); test: Fluorescence quenching vesicle binding assay, PLCγ2-cSH2; conditions: Table 4; POPC/POPS/PIP3/dabsyl-PE (67:20:3:10) vesicles (40 μM); read-out: Imax (%)
T3 construct: polyhistidine (N); made in house; host or cells: Escherichia coli BL21 (DE3) pLysS
T3 sequence (P16885 646-735 limits assumed): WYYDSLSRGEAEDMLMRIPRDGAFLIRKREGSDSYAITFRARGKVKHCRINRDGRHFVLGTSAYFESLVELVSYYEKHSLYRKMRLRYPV
Experimental: as §1, §2

[7] = biological target: T4, BLNK-SH2 (Homo sapiens, UniProt Q8WV28); test: Fluorescence quenching vesicle binding assay, BLNK-SH2; conditions: Table 4; POPC/POPS/PIP3/dabsyl-PE (67:20:3:10) vesicles (40 μM); read-out: Imax (%)
T4 construct: All SH2 domain constructs were cloned into the pRSET-B vector; polyhistidine (N); made in house; host or cells: Escherichia coli BL21 (DE3) pLysS
T4 sequence (Q8WV28 346-453 limits assumed): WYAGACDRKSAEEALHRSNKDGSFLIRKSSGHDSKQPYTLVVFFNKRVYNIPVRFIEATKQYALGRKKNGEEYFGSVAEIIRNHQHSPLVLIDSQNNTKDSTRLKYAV
Experimental: as §1, §2

[8] = Table 4, POPC/POPS/PIP3/dabsyl-PE (67:20:3:10) vesicles (40 μM)
[9] = Table 3, efficacy determined by the vesicle binding assay

Row | SMILES | Emax [1, 8] [%] | inhibition of ZAP-70-cSH2 binding to POPC/POPS/PIP3/dabsyl-PE vesicles [1] | inhibition of cell proliferation (XTT assay) [2] | Imax (%) [3, 9] | IC50 [3, 9] [nM] | Imax (%) [3, 8] [%] | effect on phosphorylation of BCR signaling proteins (Syk, BLNK, PLCγ2) [4] | inhibition of phosphorylation of ERK1/2 and STAT3/5 [5] | Emax [6] [%] | Emax [7] [%] | IC50 [1, 8] [nM]
1 | [N-]=[N+]=C(C(=O)OC1CCCCC1)C(Nc1ncccn1)c1ccco1 (racemic) [WC35, Cyclohexyl 2-diazo-3-(furan-2-yl)-3-(pyrimidin-2-ylamino)propanoate] | < 20 | did not inhibit binding | modestly more active than WC38 and entospletinib | Imax (%) = 50 | 150 | 50 ± 5 | effectively suppressed phosphorylation of all BCR signaling proteins | less active then WC36 | < 10 | < 10 | –
2 | [N-]=[N+]=C(C(=O)OC1CCCCC1)C(Nc1ncccn1)c1c[nH]c2ccccc12 (racemic) [WC36, Cyclohexyl 2-diazo-3-(1H-indol-3-yl)-3-(pyrimidin-2-ylamino)propanoate] | < 10 | did not inhibit binding | modestly more active than WC38 and entospletinib | Imax (%) = 60 | 40 | 60 ± 5 | effectively suppressed phosphorylation of all BCR signaling proteins | potent against phosphorylation of ERK1/2 and STAT3 | < 10 | < 10 | –
3 | [N-]=[N+]=C(C(=O)OC1CCCCC1)C(Nc1ncccn1)c1ccc[nH]1 (racemic) [WC38, Cyclohexyl 2-diazo-3-(pyrimidin-2-ylamino)-3-(1H-pyrrol-2-yl)propanoate] | 30 ± 5 | did not inhibit binding | – | Imax (%) = 70 | 120 | 70 ± 5 | effectively suppressed phosphorylation of all BCR signaling proteins | less active then WC36 | < 10 | < 10 | 340 ± 20
